Test results taken from patent US6486326B2, “iso-CBI and iso-CI analogs of CC-1065 duocarmycins” (The Scripps Research Institute, priority 1997, dated 2002).
“And” between values parts separate entries of the source, which are not always exact repeats. Identical values can stand only once.

Experiments:
[1] = test system: w794 DNA (SV40 DNA segment, 144 bp); assay: DNA alkylation selectivity and efficiency, thermally-induced strand cleavage of w794 DNA; format: biochemical
Procedure: FIG. 5 illustrates thermally-induced strand cleavage of w794 DNA (SV40 DNA segment, 144 bp, nucleotide nos. 138-5238); DNA-agent incubation for 24 hours at 25° C., removal of unbound agent and 30 minutes of thermolysis (100° C.), followed by denaturing 8% PAGE and autoradiography, lane 1, control DNA; lanes 2-5, Sanger G, C, A, and T sequencing reactions; lanes 6-7 (−)-iso-CBI-TMI (1×10^−3 and 1×10^−4 M); lanes 8-9, (+)-CBI-TMI (1×10^−5 and 1×10^−4 M); lanes 10-11, (+)-duocarmycin SA (1×10^−5 and 1×10^−6).
FIG. 7 illustrates thermally-induced strand cleavage of w794 DNA (SV40 DNA segment, 144 bp, nucleotide nos. 138-5238); DNA-agent incubation for 24 h at 25° C., removal of unbound agent and 30 min of thermolysis (100° C.), followed by denaturing 8% PAGE and autoradiography; lane 1, control DNA; lanes 2-5, Sanger G, C, A, and T sequencing reactions; lanes 6-8 (+)-duocarmycin SA (1×10^−4 to 1×10^−6 M); lanes9-11, seco-iso-CI-TMI (1×10^−3 to 1×10^−5 M).
DNA Alkylation Selectivity and Efficiency: The DNA alkylation properties of the agents were examined within w794 and w836 duplex DNA for which comparative results are available for related agents. (Boger, D. L., et al., J. Am. Chem. Soc. 1994, 116, 11335; Boger, D. L., et al., J. Am. Chem. Soc. 1994, 116, 6461; and Boger, D. L., et al., J. Am. Chem. Soc. 1995, 117, 11647) The alkylation site identification and the assessment of the relative selectivity among the available sites were obtained by thermally-induced strand cleavage of the singly 5′ end-labeled duplex DNA after exposure to the agents. Following treatment of the end-labeled duplex DNA with a range of agent concentrations and temperatures in the dark, the unbound agent was removed by EtOH precipitation of the DNA Redissolution of the DNA in aqueous buffer, thermolysis (100° C., 30 min) to induce strand cleavage at the sites of DNA alkylation, denaturing high-resolution polyacrylamide gel electrophoresis (PAGE) adjacent to Sanger dideoxynucleotide sequencing standards, and autoradiography led to identification of the DNA cleavage and alkylation sites. The full details of this procedure have been disclosed elsewhere. (Boger, D. L., et al., Tetrahedron 1991, 47, 2661.)
DNA Alkylation Studies: Selectivity and Efficiency: Eppendorf tubes containing singly ^32p 5′-end-labeled double-stranded DNA (9 μL) (Boger, D. L., et al., Tetrahedron 1991, 47, 2661.) in TE buffer (10 mM Tris, 1 mM EDTA, pH 7.5) were treated with the agents in DMSO (1 μL, at the specified concentrations). The solutions were mixed by vortexing and brief centrifugation and subsequently incubated at 4° C., 25° C. or 37° C. for 24-72 h. […]

[2] = test system: calf thymus DNA; assay: Calf thymus DNA alkylation, quantitation of adenine N3 adduct; format: biochemical; conditions: for conversion to thermally released adenine adduct 66: 4° C., 72 h, ca. 150 bp, then 100° C., 30 min, pH 7.0, four runs
Procedure: This was addressed through a study of the alkylation of calf thymus DNA. Optimized conditions for the alkylation were established for (−)-44 on an analytical scale (100 μg of agent). For this purpose, the long-wavelength UV absorption of the agent and the adduct provided a useful quantitative measure of the adenine adduct, unreacted starting material and any side products (solvolysis or rearrangement), Table 3. Analytical HPLC analysis was used to confirm the identity of the products through correlation of retention times and UV spectral data with authentic materials. The preparative DNA alkylation reaction and subsequent isolation of (+)-66 was carried out under conditions determined to provide complete consumption of the agent in the presence of a large excess of DNA Thus, extraction (EtOAc) of the aqueous buffer solution containing calf thymus DNA following alkylation (4° C., 72 h, 150 bp) afforded no recovered (−)-44, and only a small amount (<5%) of the rearranged product 65. Conducting the reaction at 4° C. in the presence of a large excess of DNA precluded competitive solvolysis. Thermal treatment of the alkylated DNA in aqueous 10 mM sodium phosphate buffer (100° C., 30 min, pH 7.0) followed by EtOAc extraction provided 66 in 90-95% conversion, ≧95% purity (by HPLC). Repeating this thermal treatment provided little or no additional adduct. No trace of a competing guanine adduct could be detected. This high conversion to a single adduct established that 44 participates exclusively in the adenine N3 alkylation reaction under the conditions examined.

SMILES: COc1cc2cc(C(=O)N3CC4CC45C(=O)c4ccccc4C=C35)[nH]c2c(OC)c1OC (single isomer, unassigned; (-)) [(−)-iso-CBI-TMI, 2-[(5,6,7-Trimethoxyindol-2-yl)carbonyl]-1,2,9,9a-tetrahydrocyclopropa[c]benzo[f]indol-8-one]
- DNA alkylation sequence selectivity compared with (+)-duocarmycin SA [1]: same sequence selectivity
- DNA alkylation efficiency, less efficient than (+)-CBI-TMI and (+)-duocarmycin SA ([1]; 24 h, 25° C.): 50-100 ×
- conversion to thermally released adenine adduct 66 [2]: 95% and 90-95%
- conversion to thermally released adenine adduct 66 ([2]; listed as (−)-44): 90-95%
- consumption of the agent accounted for by adenine N3 addition ([2]; in the presence of duplex DNA): 90-100%
